Converted amounts (≈) assume the structure as drawn. Where two headings read alike, the source gives them in different places.
Key:
[1] = Partitioning of topotecan into Pluronic F127 micelles (fluorescence); assay type: physicochemical; details: Pluronic F127 micelles vs aqueous phase, carrier 0.003% to 10%, topotecan 0.010 mM, 2 hrs at 37° C.
Description: Partitioning coefficient P describes the tendency of molecules of topotecan to stay inside micelles formed by the carrier: P=[x]m/[x]w, where [x]m is the actual concentration of topotecan inside micelles, [x]w is the actual concentration of topotecan in aqueous phase. The carrier investigated in this example is pluronic F127 (BASF). Partitioning coefficient was estimated using the fluorescence dependence on the concentration of the carrier (Kabanov A. et al. (1995), Macromolecules 28, 2303-2314), by fitting the measured fluorescence of topotecan to the equation:
(Imax−I0)/(−I0)−1=1/(θP)−1/P
θ=0.01v([carrier]−CMCcarrier), volume portion of the micellar phase
CMCcarrier=0.02%—critical micelle concentration for Pluronic 127
v—partial specific volume of micelles, approximately v=0.8
[…]. The plate was dried in vacuum. Solutions of the carrier were applied to wells, 300 microliter to each well. The concentration of carrier in solutions varied from 0.003% to 10%. The final concentration of topotecan was 0.010 mM. The plate was incubated 2 hrs at 37° C., and the fluorescence of the solution (excitation 360 nm, emission 530 nm) was measured using plate reader FL600 (BioTek).

[2] = Solubility of topotecan in formulations with Pluronic P85; assay type: physicochemical; details: thermodynamic from solid, read-out: Topotecan concentration (solubility)
Description: Calibration. Fluorescence of 0.300 mL samples of topotecan solutions in methanol containing between 0.00006 and 0.001 mg/mL, in triplicates on Helma Quarz plate, was measured using Bio-Tek FL600 fluorescence plate reader with excitation filter wavelength/bandwidth 360/40 nm and emission filter 530/25 nm, sensitivity 70. The average fluorescence was fitted to a linear equation and gave:
where C=topotecan concentration [mg/mL].
Solubility. 1 mg topotecan samples, in triplicates, and 1 mL of the respective buffer or carrier solution, were incubated at room temperature with shaking for 1 hour. The samples were then filtered through Acrodisc CR, PTFE Syringe filter, 4 mm diameter, 0.45 μm pore size Gelman part No. 4472. The filtrate was diluted 100 times with methanol, and the final concentration of topotecan was determined by fluorescence measurement using the above-described calibration.

[3] = Oral administration of topotecan in capsules (control, microgel, microgel + L92); assay type: in vivo, rats
Description: (§1) About 30 mg of topotecan were weighed and mixed with 100 mg of the microgel. The mixture was dissolved in 5 mL of 70% ethanol and incubated for 16 hours at room temperature. Then, the half volume of solvent was evaporated in a stream of nitrogen. About 10 mL of 3% acetic acid were added to the mixture. The final mixture was lyophilized until dryness and loaded into the gelatin capsules.
About 30 mg of topotecan were weighed and loaded in gelatin capsules (3.75 mg/capsule).
The control and formulated topotecan in capsules were orally administered in normal rats at the dose of 15 mg/kg. The blood sample collection, extraction and HPLC analysis were the same as described in example 8.
as §1, with “microgel EGDMA and 30 mg of L92.” for “the microgel.”, “capsules. The topotecan formulation in capsules was orally administered in normal rats at the dose of 15 mg/kg. The blood sample collection, the extraction and HPLC analysis procedures were the same as in example 8.” for “capsules.”

[4] = Stability of topotecan lactone in Pluronic P85 formulation (HPLC); assay type: physicochemical; details: 37° C., 0.3 mg/mL drug in PBS
Description: The formulation was prepared by mixing the stock solution containing 6 mg/mL of topotecan in 0.1% aqueous acetic acid with the 2.05% P85 solutions in PBS 1:20 (v/v), to obtain final compositions containing 0.3 mg/mL drug in 1% P85. The control formulation was prepared by simple dilution of topotecan stock solution with PBS 1:20 (v/v). The initial time of incubation (O hour) is the time of mixing of the respective stock solutions. The samples were incubated at 37° C. in thermostat. After various time intervals (1, 2, 3, 6, and 10 hrs) […], a sample of formulation was taken, diluted 1000 times with the HPLC mobile phase, and injected into HPLC. The HPLC conditions were following:
(§2) C18 reversed phase column 250×4.6 mm, Phenomenex C18 (2) Luna, 5 μm, column temperature 40° C., flow rate 1 mL/min, injection volume 20 μL, fluorescence detection at wavelengths λexcitation=381 nm, λemission=525 nm, mobile phase 94% of 2% triethylamine acetate pH 5.5/6% acetonitrile, run time 7 min

[5] = Oral bioavailability of Pluronic P85 formulated and unformulated topotecan (gavage); assay type: in vivo; details: normal rats, oral gavage of solution, 15 mg/kg, plasma
Description: About 15 mg of topotecan were weighed and dissolved in 5 mL of tap water for control, and about 15 mg of topotecan were dissolved in 5 mL of 1% P85 solution in tap water for formulation;
Both topotecan dosing solutions were orally administered by gavage in normal rats at a dose of 15 mg/kg. Three animals were used per each group.
(§3) After various time intervals (15, 30 min, 1, 3, 6, and 10 hrs) post-injection, the blood samples were collected.
The rats were anesthetized by general inhalation of Isoflurane (Bimeta-MTC, Animal Health Inc. Cambridge, ON, Canada).
The plasma sample collection, extraction and HPLC analysis were carried out with the same matter as is described in example 8.
The topotecan lactone and topotecan carboxylate concentrations were calculated from the area under the peak (AUP) by using a calibration curve. The areas under the curves (AUC) were calculated by trapezoidal rule.

[6] = Plasma pharmacokinetics of topotecan upon i.v. administration; assay type: in vivo; details: normal rats, dose of 15 mg/mL
Description: About 28 mg of topotecan were weighed and dissolved in 7 mL of isotonic solution. Topotecan was i.v. administered in normal rats at a dose of […].
as §3
The blood samples were collected from the jugular vein with the tube heparinized and kept immediately in ice for 5 to 10 min. Blood was immediately centrifuged, and plasma was separated. The plasma samples were immediately frozen in dry ice and stored at −80° C. until further use.
The aliquots (100 μL) of plasma samples were extracted with 400 μL of cold methanol. The supernatant was separated by centrifugation at 10000 RPM for 10 minutes and kept at −80° C. before HPLC analysis. The HPLC conditions were the following:
as §2
The topotecan lactone and topotecan carboxilate concentrations were calculated from the area under the peak (AUP) by using a calibration curve. The areas under the curves (AUC) were calculated by trapezoidal rule.

[7] = normal rats, oral gelatin capsules, 15 mg/kg, plasma

Question: With CC[C@@]1(O)C(=O)OCc2c1cc1n(c2=O)Cc2cc3c(CN(C)C)c(O)ccc3nc2-1 [Topotecan, topotecan] as the compound, how does the “partitioning coefficient P=[x]m/[x]w” value [1] read?
Answer: about 1

Question: What about the solubility at 1 h ([2]; 1% Pluronic P85 in PBS, aqueous with cosolvent or surfactant or cyclodextrin, P85 1% in PBS pH 7.2, room temperature) of the same compound?
Answer: 95 ± 5 µg/mL (≈ 225 µM)

Question: What about the solubility at 1 h ([2]; 3% Pluronic P85 in PBS, aqueous with cosolvent or surfactant or cyclodextrin, P85 3% in PBS pH 7.2, room temperature) of the same compound?
Answer: 105 ± 5 µg/mL (≈ 249 µM)

Question: What about the solubility at 1 h ([2]; aqueous buffer, PBS pH 7.2, room temperature) of the same compound?
Answer: 62 ± 5 µg/mL (≈ 147 µM)

Question: And the “AUC Ratio Oral Vs I.V.” value ([3]; Lac/Car AUC ratio, oral capsules 15 mg/kg vs i.v., rats)?
Answer: 2.0

Question: What about the “Cmax Ratio Oral Vs I.V.” value ([3]; Lac/Car Cmax ratio, oral capsules 15 mg/kg vs i.v., rats) of the same compound?
Answer: 2.0

Question: And the “Ratio AUC0-10 h Lac/Car” value [3, 7]?
Answer: 0.6

Question: What about the “Ratio Cmax Lac/Car” value [3, 7] of the same compound?
Answer: 0.8

Question: And the AUC(0-t) ([3]; rat, normal rats, oral gelatin capsules, 15 mg/kg, plasma, read-out: AUC0-10 h, topotecan Lactone)?
Answer: 52.8 ng·h/mL

Question: And the Cmax ([3]; rat, normal rats, oral gelatin capsules, 15 mg/kg, plasma, read-out: Cmax, topotecan Lactone)?
Answer: 9.8 ng/mL

Question: What about the topotecan lactone stability ([4]; 0 hour) of the same compound?
Answer: 100.0 % of 0 h

Question: And the topotecan lactone stability ([4]; 1 hour)?
Answer: 76.0 % of 0 h

Question: And the topotecan lactone stability ([4]; 2 hours)?
Answer: 56.4 % of 0 h

Question: What about the topotecan lactone stability ([4]; 3 hours) of the same compound?
Answer: 49.7 % of 0 h

Question: And the topotecan lactone stability ([4]; 6 hours)?
Answer: 45.9 % of 0 h

Question: And the topotecan lactone stability ([4]; 10 hours)?
Answer: 44.8 % of 0 h

Question: And the “Ratio AUC0-10 h Lac/Car” value [5]?
Answer: 1.2

Question: And the “Ratio Cmax Lac/Car” value [5]?
Answer: 1.2

Question: What about the AUC(0-t) ([5]; rat, read-out: AUC0-10 h, topotecan Lactone) of the same compound?
Answer: 80.5 ng·h/mL

Question: And the Cmax ([5]; rat, read-out: Cmax, topotecan Lactone)?
Answer: 20.3 ng/mL

Question: What about the “Ratio AUC0-10 h Lac/Car” value [6] of the same compound?
Answer: 0.3

Question: And the “Ratio Cmax Lac/Car” value [6]?
Answer: 0.4

Question: And the AUC(0-t) ([6]; rat, iv, read-out: AUC0-10 h, topotecan Lactone)?
Answer: 454 ng·h/mL

Question: And the Cmax ([6]; rat, iv, read-out: Cmax, topotecan Lactone)?
Answer: 321 ng/mL
